Test results: article PMC7297817, “Pharmacological Characterization of a Betaine/GABA Transporter 1 (BGT1) Inhibitor Displaying an Unusual Biphasic Inhibition Profile and Anti-seizure Effects” (Neurochemical Research, 2020)
Like-named read-outs stand apart in the source and are kept apart here.

How the values were obtained:
H1 = biological target: T1, H1 (Homo sapiens, UniProt P35367); assay: NIMH PDSP radioligand binding, H1; conditions: radioligand [3H]pyrilamine, n=4
T1 construct: purchased NIMH Psychoactive Drug Screening Program (PDSP)
T1 sequence (P35367 whole entry): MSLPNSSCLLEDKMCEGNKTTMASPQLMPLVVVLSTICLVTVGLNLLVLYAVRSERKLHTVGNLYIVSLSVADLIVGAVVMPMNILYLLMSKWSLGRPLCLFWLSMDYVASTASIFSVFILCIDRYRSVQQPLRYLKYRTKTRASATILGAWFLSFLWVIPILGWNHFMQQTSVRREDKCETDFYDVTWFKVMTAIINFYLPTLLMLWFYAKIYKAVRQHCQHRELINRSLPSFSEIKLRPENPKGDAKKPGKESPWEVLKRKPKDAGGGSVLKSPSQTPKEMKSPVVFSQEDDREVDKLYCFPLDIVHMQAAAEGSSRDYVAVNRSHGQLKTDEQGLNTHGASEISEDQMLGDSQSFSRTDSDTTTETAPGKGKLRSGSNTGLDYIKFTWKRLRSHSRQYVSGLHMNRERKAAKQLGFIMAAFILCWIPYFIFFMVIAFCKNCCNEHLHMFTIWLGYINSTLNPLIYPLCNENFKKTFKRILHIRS

M2 = biological target: T2, M2 (Homo sapiens, UniProt P08172); assay: NIMH PDSP radioligand binding, M2
T2 construct: purchased NIMH Psychoactive Drug Screening Program (PDSP)
T2 sequence (P08172 whole entry): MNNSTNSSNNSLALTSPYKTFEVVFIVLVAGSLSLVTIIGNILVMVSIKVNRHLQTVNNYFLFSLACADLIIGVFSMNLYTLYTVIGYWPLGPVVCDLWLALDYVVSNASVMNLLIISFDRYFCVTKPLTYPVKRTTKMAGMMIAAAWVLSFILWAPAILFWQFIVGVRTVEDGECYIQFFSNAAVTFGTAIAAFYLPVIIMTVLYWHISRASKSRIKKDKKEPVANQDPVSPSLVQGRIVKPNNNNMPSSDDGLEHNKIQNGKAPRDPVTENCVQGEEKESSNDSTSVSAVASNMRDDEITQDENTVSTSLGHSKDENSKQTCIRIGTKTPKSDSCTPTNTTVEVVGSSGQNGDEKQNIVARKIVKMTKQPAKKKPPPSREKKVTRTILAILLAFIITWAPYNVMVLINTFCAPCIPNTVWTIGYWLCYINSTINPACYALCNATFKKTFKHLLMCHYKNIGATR

hBGT1 = biological target: T3, hBGT1 (Homo sapiens, UniProt P48065); assay: [3H]GABA uptake at hBGT1 transiently expressed in tsA201 cells; type: cell-based
T3 construct: expressed in transfected cells; host or cells: tsA201 (transient)
T3 sequence (P48065 1-614): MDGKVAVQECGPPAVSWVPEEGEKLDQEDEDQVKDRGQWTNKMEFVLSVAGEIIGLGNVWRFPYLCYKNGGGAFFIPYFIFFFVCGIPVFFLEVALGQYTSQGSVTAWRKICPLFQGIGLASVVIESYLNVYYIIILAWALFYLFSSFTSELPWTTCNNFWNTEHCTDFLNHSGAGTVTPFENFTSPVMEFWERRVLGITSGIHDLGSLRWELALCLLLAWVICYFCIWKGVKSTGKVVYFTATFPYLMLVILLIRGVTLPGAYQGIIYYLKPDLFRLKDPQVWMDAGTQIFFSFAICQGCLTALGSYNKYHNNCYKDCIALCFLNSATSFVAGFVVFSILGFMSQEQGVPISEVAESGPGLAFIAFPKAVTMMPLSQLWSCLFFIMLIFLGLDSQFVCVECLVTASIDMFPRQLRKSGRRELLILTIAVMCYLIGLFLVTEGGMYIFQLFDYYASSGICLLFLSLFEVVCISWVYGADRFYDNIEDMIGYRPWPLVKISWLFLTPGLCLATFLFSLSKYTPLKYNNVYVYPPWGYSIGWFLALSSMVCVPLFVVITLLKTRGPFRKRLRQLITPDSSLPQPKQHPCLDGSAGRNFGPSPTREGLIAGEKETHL
Protocol: The tsA201 cell line was used for transient expression while the MDCK II cell line express BGT1 endogenously. Both cell lines were cultured as described. tsA201 cells were transfected with DNA constructs (8 μg per 10 cm dish if not otherwise mentioned) using 40 μL PolyFect transfection reagent according to the manufacturer’s protocol (Qiagen, Venlo, Netherlands). The DNA constructs encoding hBGT1, hGAT1-3 [36], the mutated constructs hBGT1 Q299 and hGAT3 L314Q described previously, and hBGT Y453A were synthesized and sequence validated by Genscript (NJ, USA).
The [^3H]GABA competition uptake assay was performed as previously described. […] Studies related to the inhibition curves with GABA and BPDBA at hBGT1 were obtained both with and without the presence of 10 μM ATP during the [^3H]GABA uptake assay.
All compounds, except BAPTA/AM, were also present at the same concentration during the course of the actual [^3H]GABA uptake assay.
The [^3H]GABA uptake data was normalized to the percentage of total uptake in the individual experiments in the presence of the lowest compound concentration or no compound present. Data presented is the pooled data of at least three independent experiments with three technical replicates. Concentration–response curves (CRCs) were fitted with GraphPad Prism (version 8.2.1, Yosemite, GraphPad Software, San Diego, CA, USA) by non-linear regression to the sigmoidal concentration response model: Y=Bottom+(Top-Bottom)/1+10^LogIC50-X∗nH where Top is the Top plateau, Bottom is the Bottom plateau, X is the logarithm of the concentration of the compound, LogIC50 is the concentration giving a response halfway between Top and Bottom,and nH is the Hill slope.
The best fit for CRCs obtained with the [^3H]GABA uptake assay was identified by the extra-sum-of-squares F test (for convenience referred to as F test).

5-HT2C = biological target: T4, 5-HT2C (Homo sapiens, UniProt P28335); assay: NIMH PDSP radioligand binding, 5-HT2C; conditions: radioligand [3H]mesulergine
T4 construct: NIMH PDSP (screening service)
T4 sequence (P28335 33-458, species assumed): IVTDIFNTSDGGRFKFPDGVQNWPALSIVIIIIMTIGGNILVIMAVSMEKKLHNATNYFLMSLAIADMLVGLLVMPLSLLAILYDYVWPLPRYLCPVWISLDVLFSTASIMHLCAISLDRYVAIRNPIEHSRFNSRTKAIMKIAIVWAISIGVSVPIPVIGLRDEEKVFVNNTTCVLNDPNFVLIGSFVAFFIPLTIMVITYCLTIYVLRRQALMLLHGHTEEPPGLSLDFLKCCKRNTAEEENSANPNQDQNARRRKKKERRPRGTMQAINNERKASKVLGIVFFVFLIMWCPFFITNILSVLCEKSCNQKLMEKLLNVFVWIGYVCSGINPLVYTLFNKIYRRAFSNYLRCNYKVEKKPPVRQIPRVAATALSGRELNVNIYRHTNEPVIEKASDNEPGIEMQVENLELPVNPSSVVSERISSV

CF-1 mice = assay: Maximal electroshock (MES) test; type: in vivo, mouse; conditions: for #Protected/#Tested: 15 min
From the text: Male audiogenic-susceptible (AGS) Frings mice were obtained from an in-house breeding facility at the University of Utah (Salt Lake City, UT, USA). Male CF-1 mice for the maximal electroshock (MES) test and the subcutaneous pentylenetetrazol (s.c.PTZ) seizure threshold test were purchased from Charles River (Kingston, WA, USA). All mice were housed in a temperature, humidity, and light (on at 6:00 AM) controlled facility at the University of Utah with access to ad libitum food and water except during testing. All procedures were carried out at the University of Utah in concordance with the National Institutes of Health Guidelines for the Care and Use of Laboratory Animals and under approval from the University of Utah’s Institutional Animal Care and Use Committee. The mice were euthanized in accordance with Public Health Service policies on the humane care of laboratory animals. […] This is a model of generalised tonic–clonic seizures, and was conducted as described previously. In brief, a drop of anaesthetic/electrolyte solution (0.5% tetracaine hydrochloride in 0.9% saline) was applied to the cornea of each animal prior to placement of the silver-coated corneal electrodes. An alternating current of 50 mA (60 Hz) was delivered for 0.2 s to the cornea of the mouse using a Woodbury–Davenport stimulator. The supramaximal current applied to the cornea was sufficient to induce maximal tonic extension seizures in all non-treated mice. […] Those mice not displaying full hind limb tonic extension seizures were considered protected. Probit analysis was used to analyse the efficacy and tolerability results obtained from the dose–response studies and to calculate the median effective (ED50) dose, the median toxic dose (TD50), and the 95% confidence interval.

[1] = 30 min pre-incubation with 25 μM BAPTA/AM
[2] = control: 30 min pre-incubation in assay buffer

For Cc1ccsc1C(=CCCN(C)[C@H]1CCCC[C@H]1C(=O)O)c1sccc1C [SBV2-114, (1R,2S)-2-((4,4-bis(3-methylthiophen-2-yl)but-3-en-yl)(methyl)amino)cyclohexanecarboxylic acid], the inhibition at 10 µM (H1) was 51.2%, the inhibition at 10 µM (M2) was -1.9% and the “inhibition profile (mono-/biphasic)” value (hBGT1; 30 nM [3H]GABA, 3 min, F test) was “biphasic”. For the same compound, the Frac (hBGT1; 2 μg cDNA (n=2)) was 0.44, the nH1 (hBGT1; 2 μg cDNA (n=2)) was -0.86 and the nH2 (hBGT1; 2 μg cDNA (n=2)) was -1.75. For the same compound, the Frac (hBGT1; 4 μg cDNA (n=2)) was 0.32, the nH1 (hBGT1; 4 μg cDNA (n=2)) was -1.31 and the nH2 (hBGT1; 4 μg cDNA (n=2)) was 1.62. The Frac (hBGT1; [1]) was 0.15, the nH1 (hBGT1; [1]) was -2.02 and the preferred curve fitting (hBGT1; 30 min pre-incubation with and presence of 1 μM A 804598) was “biphasic fit”. For the same compound, the preferred curve fitting (hBGT1; 30 min pre-incubation with and presence of 5 μM U-73122) was “biphasic fit”, the IC50 (hBGT1; IC50, high affinity component (low IC50), biphasic fit, 30 nM [3H]GABA, 3 min, tsA201, 8 μg cDNA) was 4.7 µM and the IC50 (hBGT1; IC50, high affinity component, 30 min pre-incubation with 25 μM BAPTA/AM) was 5.2 µM. For the same compound, the IC50 (hBGT1; IC50, high affinity component, control: 30 min pre-incubation at 37 °C in assay buffer) was 6.1 µM, the “% inhibition (Frac value) at the low IC50” value (hBGT1; biphasic fit) was 42% and the Frac (hBGT1; cells pre-incubated for 10 min with SBV2-114 prior to uptake) was 0.34. It also gave a Frac (hBGT1; [2]) of 0.21, a nH1 (hBGT1; [2]) of -0.76 and a nH2 (hBGT1; [2]) of -2.05. It also gave an IC50 (hBGT1; pIC50 ± S.E.M., high affinity component, 2 μg cDNA (n=2), biphasic fit) of 3.39 µM, an IC50 (hBGT1; pIC50 ± S.E.M., high affinity component, 4 μg cDNA (n=2), biphasic fit) of 2.19 µM and an IC50 (hBGT1; pIC50 ± S.E.M., high affinity component, biphasic fit, 30 nM [3H]GABA, 3 min, tsA201, 8 μg cDNA) of 5.25 µM. It also gave a Frac (hBGT1; proportion of maximal response due to the more potent phase, 8 μg cDNA) of 0.42, an IC50 (hBGT1; read-out: IC50, low affinity component (high IC50), biphasic fit, 30 nM [3H]GABA, 3 min, tsA201, 8 μg cDNA) of 556 µM and an IC50 (hBGT1; read-out: IC50, low affinity component, 2 μg cDNA (n=2), biphasic fit) of 518 µM. For the same compound, the IC50 (hBGT1; read-out: IC50, low affinity component, 4 μg cDNA (n=2), biphasic fit) was 514 µM, the IC50 (hBGT1; read-out: IC50, low affinity component, 30 min pre-incubation with 25 μM BAPTA/AM) was 513 µM and the IC50 (hBGT1; read-out: IC50, low affinity component, control: 30 min pre-incubation at 37 °C in assay buffer) was 507 µM. The inhibition at 10 µM (5-HT2C; 10 μM, n=4) was 77.5%, the Ki (5-HT2C; full curve) was 0.67 µM and the “#Protected/#Tested” value (CF-1 mice; 50 mg/kg i.p.) was 0/3. For the same compound, the “#Protected/#Tested” value (CF-1 mice; 100 mg/kg i.p.) was 0/4, the “#Protected/#Tested” value (CF-1 mice; 125 mg/kg i.p.) was 2/7 and the “#Protected/#Tested” value (CF-1 mice; 150 mg/kg i.p.) was 4/6. For the same compound, the “#Protected/#Tested” value (CF-1 mice; 200 mg/kg i.p.) was 4/4 and the ED50 (CF-1 mice; Mus musculus, ip) was 139 mg/kg.
